The source made the active and inactive calls. The rule behind the calls is not given here.
What was measured:
Assay type in all cases: functional, cell-based
[1] = tested on: Bel-7402; test: Cytotoxicity against human Bel-7402 cells assessed as reduction in cell viability by CCK8 assay
[2] = tested on: A549; test: Cytotoxicity against human A549 cells assessed as reduction in cell viability by CCK8 assay
[3] = tested on: HT-29; test: Cytotoxicity against human HT-29 cells assessed as reduction in cell viability by CCK8 assay
[4] = tested on: U-251; test: Cytotoxicity against human U-251 cells assessed as reduction in cell viability by CCK8 assay
[5] = tested on: HCT-116; test: Cytotoxicity against human HCT-116 cells assessed as reduction in cell viability by CCK8 assay

Row | Compound | Activity [1] | Activity [2] | Activity [3] | Activity [4] | Activity [5] | IC50 [5] [µM]
1 | CC(C)=CCC[C@@H](C(=O)O)[C@@H]1[C@@H](O)C[C@]2(C)C3=CC[C@H]4C(C)(C)[C@@H](O)CC[C@]4(C)[C@H]3C[C@@H](O)[C@@]12C | inactive | inactive | inactive | inactive | inactive | –
2 | COC(=O)C[C@H]1[C@](C)(C2=C(C)[C@H](c3ccoc3)C[C@@H]2OC(C)=O)[C@H](OC(=O)c2ccccc2)[C@@H]2OC[C@]3(C)[C@H](OC(C)=O)C[C@H](OC(C)=O)[C@@]1(C)[C@@H]23 | inactive | inactive | inactive | inactive | inactive | –
3 | C/C=C(\C)C(=O)O[C@H]1C[C@@H](OC(=O)c2ccccc2)[C@@]2(C)CO[C@H]3[C@H]4O[C@@H]5C[C@@H](c6ccoc6)C(C)=C5[C@@]4(C)[C@H](CC(=O)OC)[C@]1(C)[C@@H]32 | inactive | inactive | inactive | inactive | inactive | –
4 | CC(=O)O[C@H]1C[C@@H](OC(C)=O)[C@@]2(C)CO[C@H]3[C@@H](OC(=O)c4ccccc4)[C@@]4(C)C5=C(C)[C@H](c6ccoc6)C[C@@H]5O[C@@H](O)C[C@@H]4[C@]1(C)[C@@H]32 | inactive | inactive | inactive | inactive | inactive | –
5 | COC(=O)C[C@H]1[C@]2(C)C3=C(C)[C@H](c4ccoc4)C[C@H]3O[C@@H]2[C@@H]2OC[C@]3(C)[C@H](OC(=O)c4ccccc4)C[C@H](OC(=O)/C=C/c4ccccc4)[C@@]1(C)[C@@H]23 | inactive | inactive | inactive | inactive | inactive | –
6 | COC(=O)C[C@H]1[C@]2(C)C3=C(C)[C@H](c4ccoc4)C[C@H]3O[C@@H]2[C@H](OC(C)=O)[C@H]2[C@](C)(C=O)[C@H](O)C[C@H](OC(=O)c3ccccc3)[C@@]21C | inactive | inactive | inactive | inactive | inactive | –
7 | COC(=O)C[C@H]1[C@]2(C)C3=C(C)[C@H](c4ccoc4)C[C@H]3O[C@@H]2[C@@H]2OC[C@]3(C)[C@H](OC(=O)/C=C/c4ccccc4)C[C@H](OC(=O)c4ccccc4)[C@@]1(C)[C@@H]23 | inactive | inactive | inactive | inactive | inactive | –
8 | C/C=C(\C)C(=O)O[C@@H]1[C@@H]2OC[C@]3(C)[C@H](OC(C)=O)C[C@H](OC(C)=O)[C@@](C)([C@@H]23)[C@H]2C[C@H](O)O[C@H]3C[C@@H](c4ccoc4)C(C)=C3[C@]12C | inactive | inactive | inactive | inactive | inactive | –
9 | CC(C)=CCC[C@H]1C(=O)O[C@H]2C[C@]3(C)C4=CC(=O)[C@H]5C(C)(C)[C@@H](O)CC[C@]5(C)[C@H]4CC[C@@]3(C)[C@@H]21 | inactive | inactive | inactive | inactive | inactive | –
10 | C/C=C(\C)C(=O)O[C@H]1C[C@@H](O)[C@@](C)(C=O)[C@@H]2[C@@H](OC(C)=O)[C@H]3O[C@@H]4C[C@@H](c5ccoc5)C(C)=C4[C@@]3(C)[C@H](CC(=O)OC)[C@@]12C | inactive | inactive | inactive | inactive | inactive | –
11 | COC(=O)C[C@H]1[C@]2(C)C3=C(C)[C@H](c4ccoc4)C[C@H]3O[C@@H]2[C@@H]2OC[C@]3(C)[C@H](OC(=O)c4ccccc4)C[C@H](OC(=O)c4ccccc4)[C@@]1(C)[C@@H]23 | inactive | inactive | inactive | inactive | – | 0.3
12 | COC(=O)C[C@H]1[C@](C)(C2=C(C)[C@H](c3ccoc3)C[C@@H]2OC)[C@H](OC(=O)c2ccccc2)[C@@H]2OC[C@]3(C)[C@H](OC(C)=O)C[C@H](OC(C)=O)[C@@]1(C)[C@@H]23 | inactive | inactive | inactive | inactive | inactive | –
13 | C/C=C(\C)C(=O)O[C@@H]1[C@@H]2OC[C@]3(C)[C@H](OC(C)=O)C[C@H](OC(C)=O)[C@@](C)([C@@H]23)[C@@H](CC(=O)OC)[C@]1(C)C1=C(C)[C@H](c2ccoc2)C[C@@H]1OC | inactive | inactive | inactive | inactive | inactive | –
14 | CC(=O)O[C@H](C(=O)C=C(C)C)[C@H](C)[C@@H]1CC[C@]2(C)C3=CC[C@H]4C(C)(C)C(=O)CC[C@]4(C)[C@H]3C[C@@H](O)[C@@]12C | inactive | inactive | inactive | inactive | – | 5.9
15 | CO[C@@H]1O[C@@H]([C@H](O)C(C)(C)O)C[C@H]1[C@@H]1CC[C@]2(C)C3=CC[C@H]4C(C)(C)[C@@H](O)CC[C@]4(C)[C@H]3CC[C@@]12C | inactive | inactive | inactive | inactive | inactive | –
16 | CC(=O)O[C@H]1[C@@H](OC(=O)c2ccccc2)[C@@]2(C)C3=CC[C@@H](c4ccoc4)[C@]3(C)[C@@H](OC(C)=O)C[C@@H]2[C@@]2(C)[C@@H](O)C[C@@H](OC(C)=O)[C@](C)(C=O)[C@H]12 | inactive | inactive | inactive | inactive | inactive | –
17 | C/C=C(\C)C(=O)O[C@@H]1C[C@H](OC(=O)/C=C/c2ccccc2)[C@@]2(C)[C@H]3[C@@H](OC[C@]13C)[C@H]1O[C@@H]3C[C@@H](c4ccoc4)C(C)=C3[C@@]1(C)[C@@H]2CC(=O)OC | inactive | inactive | inactive | inactive | inactive | –
18 | C/C=C(\C)C(=O)O[C@@H]1[C@@H]2OC[C@]3(C)[C@H](OC(C)=O)C[C@H](OC(C)=O)[C@@](C)([C@@H]23)[C@@H](CC(=O)OC)[C@]1(C)C1=C(C)[C@H](c2ccoc2)C[C@H]1OC | inactive | inactive | inactive | inactive | inactive | –
19 | C=C(C)C(=O)O[C@@H]1[C@@H]2OC[C@]3(C)[C@H](OC(C)=O)C[C@H](OC(C)=O)[C@@](C)([C@@H]23)[C@@H](CC(=O)OC)[C@]1(C)C1=C(C)[C@H](c2ccoc2)C[C@@H]1OC | inactive | inactive | inactive | inactive | inactive | –
20 | CO[C@H]1O[C@@H]([C@H](O)C(C)(C)O)C[C@H]1[C@@H]1CC[C@]2(C)C3=CC[C@H]4C(C)(C)[C@@H](O)CC[C@]4(C)[C@H]3CC[C@@]12C | inactive | inactive | inactive | inactive | inactive | –
21 | COC(=O)C[C@H]1[C@](C)(C2=C(C)[C@H](c3ccoc3)C[C@H]2OC)[C@H](OC(=O)c2ccccc2)[C@@H]2OC[C@]3(C)[C@H](OC(C)=O)C[C@H](OC(C)=O)[C@@]1(C)[C@@H]23 | inactive | inactive | inactive | inactive | inactive | –
